Assays:
[1] = Oral bioavailability and brain penetrance of UCM765 and UCM924
[2] = Pharmacokinetic study in male Beagle dogs (UCM924 measured in plasma); format: in vivo; settings: dog, UCM924 plasmatic level, UCM924 2 mg/kg IV
Protocol: (§1) In vivo pharmacokinetic studies of prodrug D were carried in male rats (Sprague-Dawley, weight 210-214 grams) and male dogs (Beagles, weight 8960-9820 grams). Animals were housed under standard conditions and had free access to water and standard laboratory diet. Care and husbandry of animals were in conformity with the institutional guidelines, in compliance with national and international laws and policies (EEC Council Directive 86/609, OJL 358m, 1, Dec. 122, 1987; NIH Guide for the care and Use of Laboratory Animals, NIH Publication No. 86-23, 1985). The compounds were dissolved in water containing 40% PEG 400 at a concentration of 15 mg/ml (clear solution) for the PO dose for Dog, or in water containing 40% PEG 400 at a concentration of 12.5 mg/ml (clear solution) for the PO dose for Rat. Dogs were randomly assigned to treatment groups (n=3) and received a single oral administration (15 mg/kg) through oral gavage of Prodrug D and the level of the active metabolite UCM924 was then measured. Serial blood samples (200 uL) were collected from caudal vein at 5, 15, 30, 60, 120, 240, 360, 480 and 1440 min after PO administration. […] UCM924 (20 mg/kg) was also administered per os in rats and IV in dogs (2 mg/kg) and it was measured in plasma. […]

[3] = Pharmacokinetic study in male rats (UCM924 measured in plasma); format: in vivo; settings: Sprague-Dawley, rat, po, UCM924 plasmatic level, UCM924 20 mg/kg per os
Protocol: as §1, with “Rats” for “Dogs”, “(50” for “(15”, “mg/kg)” for “mg/kg) through oral gavage”, “administration. Blood samples were collected into a prechilled commercial tube (Jiangsu Kangjian medical supplies co., LTD) containing Potassium (K2) EDTA (0.85-1.15 mg).” for “administration.”

[4] = in vivo; cited from earlier work
[5] = Stability of Prodrug D in solvents by HPLC; format: physicochemical; settings: HPLC Method 2
Protocol: For this test, we used HPLC with different solvent systems. […] Therefore, after initial assessment, this method was used for the remaining tests. Prodrug D or UCM924 (comparator) were dissolved in the different solvents listed in the table below and, after the waiting period indicated, HPLC tests were carried out according to the above. The results are shown in the table below, in which the percentages represent the quantity of prodrug D or UCM924 detected in the samples.

[6] = in vivo; cited from earlier work; remark: listed apart in the source

Kp ([1]; brain): 2.5
bioavailability ([1]; in vivo, po): 6%
AUC(0-t) [2]: 1690 ± 275 ng·h/mL
half-life [2]: 1.79 ± 0.4 h
AUC(0-t) [3]: 97.7 ± 61 ng·h/mL
Cmax [3]: 42 ± 34 ng/mL
quantity detected in the sample by HPLC ([5]; 1N HCl, overnight at rt, pH ~0): 14.79%
quantity detected in the sample by HPLC ([5]; 40% PEG400:60% H2O, overnight at rt, pH ~7.0): 40.16%
quantity detected in the sample by HPLC ([5]; H2O, overnight at rt, pH ~7.0): 80.09%
quantity detected in the sample by HPLC ([5]; Saturated NaHCO3aq, 2 h at rt, pH ~8.5): 62.33%
SMILES: CC(=O)NCCN(c1ccc(F)cc1)c1cccc(Br)c1 [UCM924, N-{2-[(3-bromophenyl)-(4-fluorophenyl)amino]ethyl}acetamide]
antinociceptive properties in tests for chronic neuropathic pain [4]: potent antinociceptive properties
motor impairments in the RotaRod test [6]: did not produce any motor impairments

From patent publication US20250339396A1 (COSMAS THERAPEUTICS DEVELOPMENT INC., priority 2021, published 2025)
